Article PMC3425516 (PLoS ONE, 2012)
Several values for one entry are separate records, joined by “and”; a condition that tells them apart may be missing. Identical values can stand only once.

Assays:
A549/ATCC = experiment: NCI-60 cell lines screening; type: cell-based, human; conditions: Non-Small Cell Lung Cancer panel
Experimental: (§1) The NCI-60 cancer cell lines screening was conducted by the NCI’s Developmental Therapeutics Program (DTP; http://www.dtp.nci.nih.gov/branches/btb/ivclsp.html).

CCRF-CEM = experiment: NCI-60 cell lines screening; type: cell-based, human; conditions: Leukemia panel
Experimental: as §1

DU-145 = experiment: NCI-60 cell lines screening; type: cell-based, human; conditions: DU-145, Prostate Cancer panel
Experimental: as §1

HCC-2998 = experiment: NCI-60 cell lines screening; type: cell-based, human; conditions: HCC-2998, Colon Cancer panel
Experimental: as §1

HCT-116 = experiment: NCI-60 cell lines screening; type: cell-based, human; conditions: HCT-116, Colon Cancer panel
Experimental: as §1

HOP-62 = experiment: NCI-60 cell lines screening; type: cell-based, human; conditions: HOP-62, Non-Small Cell Lung Cancer panel
Experimental: as §1

HS 578T = experiment: NCI-60 cell lines screening; type: cell-based, human
Experimental: as §1

HT29 = experiment: NCI-60 cell lines screening; type: cell-based, human; conditions: HT29, Colon Cancer panel
Experimental: as §1

K-562 = experiment: NCI-60 cell lines screening; type: cell-based, human; conditions: K-562, Leukemia panel
Experimental: as §1

MOLT-4 = experiment: NCI-60 cell lines screening; type: cell-based, human; conditions: MOLT-4, Leukemia panel
Experimental: as §1

RPMI-8226 = experiment: NCI-60 cell lines screening; type: cell-based, human; conditions: RPMI-8226, Leukemia panel
Experimental: as §1

SF-539 = experiment: NCI-60 cell lines screening; type: cell-based, human; conditions: SF-539, CNS Cancer panel
Experimental: as §1

SK-MEL-28 = experiment: NCI-60 cell lines screening; type: cell-based, human; conditions: SK-MEL-28, Melanoma panel
Experimental: as §1

SK-OV-3 = experiment: NCI-60 cell lines screening; type: cell-based, human; conditions: SK-OV-3, Ovarian Cancer panel
Experimental: as §1

SNB-75 = experiment: NCI-60 cell lines screening; type: cell-based, human; conditions: SNB-75, CNS Cancer panel
Experimental: as §1

HCT116 cells = experiment: Sulforhodamine B cell growth assay; type: cell-based; conditions: Homo sapiens, HCT-116; HCT116, SRB assay, 48 h, mean±S.E.M.; read-out: GI50
Experimental: (§2) HCT116, MDAMB231 and NCI-ADR cells were seeded in 96-well plates in medium with 5% fetal bovine serum overnight. Cells were fixed with 10% trichloroacetic representing cell population at the time of drug treatment (T 0). […] Excess Sulforhodamine B was washed away by 1% acetic acid and dye-containing cells were lysed with 10 mmol/L Trizma base. […] By measuring time zero (T 0), control growth (C), and cell growth in the presence of the drug (Tx), the percentage growth was calculated. Percentage growth inhibition was calculated as 100-[(Tx–T 0)/(C-T 0)]×100.

MDAMB231 cells = experiment: Sulforhodamine B cell growth assay; type: cell-based; conditions: Homo sapiens, MDA-MB-231; MDAMB231, SRB assay, 48 h
Experimental: as §2

NCI-ADR cells = experiment: Sulforhodamine B cell growth assay; type: cell-based; conditions: Homo sapiens, NCI/ADR-RES, SRB assay, 48 h
Experimental: as §2

[1] = test system: HDACs in HeLa nuclear extracts; experiment: HeLa nuclear extract HDAC activity assay; type: biochemical
Experimental: The HeLa nuclear extract HDAC activity was measured by using the HDAC Fluorescent Activity Assay Kit (BioVision, CA, USA) according to manufacturer’s instructions. Briefly, the HDAC fluorometric substrate and assay buffer were added to HeLa nuclear extracts in a 96-well format and incubated at 37°C for 30 min. The reaction was stopped by adding lysine developer, and the mixture was incubated for another 30 min at 37°C. Additional negative controls included incubation without the nuclear extract, without the substrate, or without both. TSA at 1 µM served as the positive control.

[2] = test system: human HCT116 colorectal cancer xenograft; experiment: HCT116 xenograft, tumor growth inhibition after 15 days dosing; type: in vivo, nude mice
Experimental: The human HCT116 colorectal adenocarcinoma cells used for implantation were harvested during log phase growth and resuspended in phosphate-buffered saline at 5×10^7 cells/mL. Each mouse was injected s.c. in the right flank with 1.0×10^7 cells (0.2 mL cell suspension). Tumors were monitored twice weekly and then daily as their volumes approached 1,200 mm^3. Tumor size, in mm^3, was calculated from: where w = width and l = length in mm of the tumor. Tumor volume = (w^2×l)/2.
The tumor growth curves show the group median tumor volume, on a log scale as a function of time.
Once a tumor was palpable with the size of approximately 55 mm^3, mice were randomized into vehicle control and treatment groups (8 mice per group). Control mice received the vehicle (0.5% carboxymethyl cellulose +0.1% Tween 80). Tumors in all 3 groups were allowed to reach an endpoint volume of 1,200 mm^3.

recombinant human HDAC1 = recombinant human HDAC1 (Homo sapiens, UniProt Q13547); experiment: biochemical
Description: (§3) The HDACs in vitro activities of recombinant human HDAC 1, 2, 4, 6 and 8 (BPS Biosciences) were detected by fluorigenic release of 7-amino-4-methylcoumarin from substrate upon deacetylase enzymatic activity.

recombinant human HDAC6 = recombinant human HDAC6 (Homo sapiens, UniProt Q9UBN7); experiment: biochemical
Description: as §3

[3] = Homo sapiens, read-out: LC50 (the source's name)

Sequence of recombinant human HDAC1 (Q13547 whole entry): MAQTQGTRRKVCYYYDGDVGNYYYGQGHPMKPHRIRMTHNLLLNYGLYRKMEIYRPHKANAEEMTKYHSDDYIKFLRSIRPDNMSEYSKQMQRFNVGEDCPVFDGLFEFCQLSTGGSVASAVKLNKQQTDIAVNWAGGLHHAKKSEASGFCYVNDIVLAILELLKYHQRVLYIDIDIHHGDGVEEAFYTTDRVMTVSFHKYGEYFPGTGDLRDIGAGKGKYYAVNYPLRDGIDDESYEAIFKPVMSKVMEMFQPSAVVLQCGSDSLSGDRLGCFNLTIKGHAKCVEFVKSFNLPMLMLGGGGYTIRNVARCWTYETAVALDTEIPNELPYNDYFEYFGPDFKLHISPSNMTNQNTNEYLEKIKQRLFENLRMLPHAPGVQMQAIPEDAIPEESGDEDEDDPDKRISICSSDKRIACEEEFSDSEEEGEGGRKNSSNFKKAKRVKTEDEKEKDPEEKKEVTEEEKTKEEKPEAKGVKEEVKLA
Sequence of recombinant human HDAC6 (Q9UBN7 whole entry): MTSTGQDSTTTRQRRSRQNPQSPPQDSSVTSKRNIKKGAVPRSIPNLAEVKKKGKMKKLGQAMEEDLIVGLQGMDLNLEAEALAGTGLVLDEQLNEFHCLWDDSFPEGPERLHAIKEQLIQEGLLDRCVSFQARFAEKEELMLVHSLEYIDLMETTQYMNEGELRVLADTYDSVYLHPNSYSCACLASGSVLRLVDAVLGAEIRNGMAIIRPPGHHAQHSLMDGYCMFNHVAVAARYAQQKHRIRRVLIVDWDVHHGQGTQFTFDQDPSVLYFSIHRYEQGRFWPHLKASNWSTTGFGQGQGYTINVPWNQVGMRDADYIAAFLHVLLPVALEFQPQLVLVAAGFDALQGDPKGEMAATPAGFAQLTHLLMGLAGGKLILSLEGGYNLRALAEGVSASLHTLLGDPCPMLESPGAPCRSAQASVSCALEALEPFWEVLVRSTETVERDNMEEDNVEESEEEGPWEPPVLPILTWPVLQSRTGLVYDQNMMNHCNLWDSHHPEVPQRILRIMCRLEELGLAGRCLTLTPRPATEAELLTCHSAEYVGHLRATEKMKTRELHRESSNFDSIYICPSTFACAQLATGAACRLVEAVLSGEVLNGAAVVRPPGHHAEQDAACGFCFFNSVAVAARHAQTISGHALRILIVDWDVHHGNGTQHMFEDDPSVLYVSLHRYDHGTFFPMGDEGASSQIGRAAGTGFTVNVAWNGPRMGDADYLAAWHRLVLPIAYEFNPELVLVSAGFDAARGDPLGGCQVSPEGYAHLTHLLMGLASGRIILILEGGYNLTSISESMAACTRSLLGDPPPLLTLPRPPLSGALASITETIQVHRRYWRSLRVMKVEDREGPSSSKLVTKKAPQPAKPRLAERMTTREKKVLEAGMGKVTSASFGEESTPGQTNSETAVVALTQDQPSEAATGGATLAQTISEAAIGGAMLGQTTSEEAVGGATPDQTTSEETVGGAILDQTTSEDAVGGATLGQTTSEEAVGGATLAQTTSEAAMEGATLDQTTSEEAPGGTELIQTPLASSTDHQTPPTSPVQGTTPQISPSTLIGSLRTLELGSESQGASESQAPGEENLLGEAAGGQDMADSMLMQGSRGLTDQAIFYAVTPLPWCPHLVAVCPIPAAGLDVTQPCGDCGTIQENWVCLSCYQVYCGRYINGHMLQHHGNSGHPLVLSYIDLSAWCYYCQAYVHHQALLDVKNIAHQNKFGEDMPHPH

O=C(C=Cc1ccc2c(c1)CCN2S(=O)(=O)c1ccccc1)NO [MPT0E028, 3-(1-benzenesulfonyl-2,3-dihydro-1H-indol-5-yl)-N-hydroxy-acrylamide]
GI50 (A549/ATCC; Homo sapiens): 230 nM
CC50 (A549/ATCC; [3]): 9030 nM
TGI (A549/ATCC): 1090 nM
GI50 (CCRF-CEM; Homo sapiens): 165 nM
CC50 (CCRF-CEM; [3]): > 100000 nM
TGI (CCRF-CEM): >100000 nM
TGI (DU-145): 1920 nM
GI50 (DU-145; Homo sapiens): 179 nM
CC50 (DU-145; [3]): > 100000 nM
TGI (HCC-2998): 522 nM
GI50 (HCC-2998; Homo sapiens): 194 nM
CC50 (HCC-2998; [3]): 2060 nM
TGI (HCT-116): 204 nM
GI50 (HCT-116; Homo sapiens): 56.3 nM
CC50 (HCT-116; [3]): 566 nM
TGI (HOP-62): 1060 nM
GI50 (HOP-62; Homo sapiens): 187 nM
CC50 (HOP-62; [3]): 19200 nM
TGI (HS 578T; HS 578T, Breast Cancer panel): 17900 nM
GI50 (HS 578T; Homo sapiens, Hs-578T): 253 nM
CC50 (HS 578T; Homo sapiens, Hs-578T, read-out: LC50 (the source's name)): > 100000 nM
TGI (HT29): 716 nM
GI50 (HT29; Homo sapiens, HT-29): 118 nM
CC50 (HT29; Homo sapiens, HT-29, read-out: LC50 (the source's name)): 68100 nM
GI50 (K-562; Homo sapiens, K562): 115 nM
CC50 (K-562; Homo sapiens, K562, read-out: LC50 (the source's name)): > 100000 nM
TGI (K-562): >100000 nM
GI50 (MOLT-4; Homo sapiens): 317 nM
CC50 (MOLT-4; [3]): > 100000 nM
TGI (MOLT-4): >100000 nM
GI50 (RPMI-8226; Homo sapiens): 81.1 nM
CC50 (RPMI-8226; [3]): > 100000 nM
TGI (RPMI-8226): >100000 nM
GI50 (SF-539; Homo sapiens): 241 nM
CC50 (SF-539; [3]): 3390 nM
TGI (SF-539): 1150 nM
GI50 (SK-MEL-28; Homo sapiens): 406 nM
CC50 (SK-MEL-28; [3]): > 100000 nM
TGI (SK-MEL-28): 2740 nM
GI50 (SK-OV-3; Homo sapiens): 190 nM
CC50 (SK-OV-3; [3]): 4260 nM
TGI (SK-OV-3): 601 nM
GI50 (SNB-75; Homo sapiens): 59.1 nM
CC50 (SNB-75; [3]): 32800 nM
TGI (SNB-75): 6270 nM
GI50 (HCT116 cells): 90 ± 4 nM
GI50 (MDAMB231 cells): 190 ± 40 nM
GI50 (NCI-ADR cells): 140 ± 20 nM
times more potent than SAHA in HDAC activity inhibition ([1]; HeLa and HCT116 cells, relative to SAHA): 9–30 times and 10–30 times
IC50 ([1]; HeLa nuclear extract): 11.1 nM
percent tumor growth inhibition (%TGI) ([2]; 100 mg/kg oral once a day for 15 days): 32.0%
percent tumor growth inhibition (%TGI) ([2]; 200 mg/kg oral once a day for 15 days): 73.5%
IC50 (recombinant human HDAC1): 53 ± 12 nM
IC50 (recombinant human HDAC6): 29.5 ± 6.4 nM
